Test results published in PubChem BioAssay AID1963873 (Molecular Pharmacology Branch, DTP, NCI, 2024).
“And” between values parts separate entries of the source, which are not always exact repeats. Equal values may be shown once. The source made the active and inactive calls. How the source made its calls: active means viability on the fitted dose curve at most 10% of control; inactive means the rest.

Tested on: 276233-004-R-J1-PDC KRAS spheroids with HUVEC/MSC, viability
Experiment: Anticancer human tumor 276233-004-R-J1-PDC patient-derived colon adenocarcinoma cell line growth inhibition [KRAS2]
Settings: for viability, T/C: stronger effect = lower value
Method in brief: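 Combination screen of spheroid viability in tumor-cell co-cultures with endothelial (HUVEC) and mesenchymal stem cell stroma. Each agent was tested in half-log dilutions, topping at clinical Cmax or at 10 microM without a known Cmax.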

[1] = curve of first compound, second compound 0.1 µM
[2] = curve of first compound, second compound 0.316 µM
[3] = curve of first compound, second compound 1 µM
[4] = curve of first compound, second compound 3.16 µM
[5] = curve of first compound, second compound 10 µM
[6] = second compound 0.1 µM, first compound 0.0316 µM
[7] = second compound 0.1 µM, first compound 0.1 µM
[8] = second compound 0.1 µM, first compound 0.316 µM
[9] = second compound 0.1 µM, first compound 1 µM
[10] = second compound 0.1 µM, first compound 3.16 µM
[11] = second compound 0.316 µM, first compound 0.0316 µM
[12] = second compound 0.316 µM, first compound 0.1 µM
[13] = second compound 0.316 µM, first compound 0.316 µM
[14] = second compound 0.316 µM, first compound 1 µM
[15] = second compound 0.316 µM, first compound 3.16 µM
[16] = second compound 1 µM, first compound 0.0316 µM
[17] = second compound 1 µM, first compound 0.1 µM
[18] = second compound 1 µM, first compound 0.316 µM
[19] = second compound 1 µM, first compound 1 µM
[20] = second compound 1 µM, first compound 3.16 µM
[21] = second compound 3.16 µM, first compound 0.0316 µM
[22] = second compound 3.16 µM, first compound 0.1 µM
[23] = second compound 3.16 µM, first compound 0.316 µM
[24] = second compound 3.16 µM, first compound 1 µM
[25] = second compound 3.16 µM, first compound 3.16 µM
[26] = second compound 10 µM, first compound 0.0316 µM
[27] = second compound 10 µM, first compound 0.1 µM
[28] = second compound 10 µM, first compound 0.316 µM
[29] = second compound 10 µM, first compound 1 µM
[30] = second compound 10 µM, first compound 3.16 µM
[31] = second compound 0.1 µM, first compound 0.01 µM
[32] = second compound 0.316 µM, first compound 0.01 µM
[33] = second compound 1 µM, first compound 0.01 µM
[34] = second compound 3.16 µM, first compound 0.01 µM
[35] = second compound 10 µM, first compound 0.01 µM
[36] = second compound 0.1 µM, first compound 0.000316 µM
[37] = second compound 0.1 µM, first compound 0.001 µM
[38] = second compound 0.1 µM, first compound 0.00316 µM
[39] = second compound 0.316 µM, first compound 0.000316 µM
[40] = second compound 0.316 µM, first compound 0.001 µM
[41] = second compound 0.316 µM, first compound 0.00316 µM
[42] = second compound 1 µM, first compound 0.000316 µM
[43] = second compound 1 µM, first compound 0.001 µM
[44] = second compound 1 µM, first compound 0.00316 µM
[45] = second compound 3.16 µM, first compound 0.000316 µM
[46] = second compound 3.16 µM, first compound 0.001 µM
[47] = second compound 3.16 µM, first compound 0.00316 µM
[48] = second compound 10 µM, first compound 0.000316 µM
[49] = second compound 10 µM, first compound 0.001 µM
[50] = second compound 10 µM, first compound 0.00316 µM
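Wherever IC50 is given: cells exposed to agents for seven days before viability read.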
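Wherever viability, T/C is given: cells exposed to agents for seven days before viability read; 100% = DMSO vehicle control wells and lower values mean fewer viable cells.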

COC(=O)c1ccc2c(C(=Nc3ccc(N(C)C(=O)CN4CCN(C)CC4)cc3)c3ccccc3)c(O)[nH]c2c1 + CNCc1ccccc1-c1csc(C(C)Nc2nc(C)nc3cc(OC)c(OC)cc23)c1
IC50 [1]: > 10000 nM | IC50 [2]: > 10000 nM | IC50 [3]: 1140 nM | IC50 [4]: < 31.6 nM | IC50 [5]: < 31.6 nM | viability, T/C [6]: 95.9% | viability, T/C [7]: 80.5% | viability, T/C [8]: 87.7% | viability, T/C [9]: 70.1% | viability, T/C [10]: 87.7% | viability, T/C (second compound 0.1 µM, first compound 10 µM): 70.1% | viability, T/C [11]: 95.5% | viability, T/C [12]: 91.7% | viability, T/C [13]: 71.4% | viability, T/C [14]: 74.5% | viability, T/C [15]: 70.4% | viability, T/C (second compound 0.316 µM, first compound 10 µM): 74.5% | viability, T/C [16]: 59.4% | viability, T/C [17]: 58.5% | viability, T/C [18]: 56.5% | viability, T/C [19]: 54.6% | viability, T/C [20]: 12.1% | viability, T/C (second compound 1 µM, first compound 10 µM): 14.6% | viability, T/C [21]: 2.33% | viability, T/C [22]: 4.5% | viability, T/C [23]: 7.73% | viability, T/C [24]: 3.3% | viability, T/C [25]: 9.99% | viability, T/C (second compound 3.16 µM, first compound 10 µM): 5.4% | viability, T/C [26]: 3.64% | viability, T/C [27]: 3.36% | viability, T/C [28]: 4.73% | viability, T/C [29]: 6.01% | viability, T/C [30]: 1.8% | viability, T/C (second compound 10 µM, first compound 10 µM): 0.53%

COC(=O)c1ccc2c(C(=Nc3ccc(N(C)C(=O)CN4CCN(C)CC4)cc3)c3ccccc3)c(O)[nH]c2c1
viability, T/C (compound 0.0316 µM): 93.3% [middle of 5 runs] | viability, T/C (compound 0.1 µM): 90.3% [middle of 5 runs] | viability, T/C (compound 0.316 µM): 81.9% [middle of 5 runs] | viability, T/C (compound 1 µM): 86.2% [middle of 5 runs] | IC50 (curve of compound): > 10000 nM

CC1COCCN1c1cc(-c2ccnn2C)c2ccnc(-c3ccn[nH]3)c2n1 (stereo unspecified) + C=CC(=O)N1CCN(c2nc(=O)n(-c3c(C)ccnc3C(C)C)c3nc(-c4c(O)cccc4F)c(F)cc23)C(C)C1
IC50 [1]: > 3160 nM | IC50 [2]: > 3160 nM | IC50 [3]: > 3160 nM | IC50 [4]: > 3160 nM | IC50 [5]: 1000 nM | viability, T/C [31]: 112% | viability, T/C [6]: 104% | viability, T/C [7]: 88.4% | viability, T/C [8]: 109% | viability, T/C [9]: 63.1% | viability, T/C [10]: 54.8% | viability, T/C [32]: 96.3% | viability, T/C [11]: 96.2% | viability, T/C [12]: 97.1% | viability, T/C [13]: 77.6% | viability, T/C [14]: 74.5% | viability, T/C [15]: 55.1% | viability, T/C [33]: 96% | viability, T/C [16]: 105% | viability, T/C [17]: 84.6% | viability, T/C [18]: 76.6% | viability, T/C [19]: 72.4% | viability, T/C [20]: 61.7% | viability, T/C [34]: 114% | viability, T/C [21]: 110% | viability, T/C [22]: 78.9% | viability, T/C [23]: 79.5% | viability, T/C [24]: 61.7% | viability, T/C [25]: 71% | viability, T/C [35]: 66% | viability, T/C [26]: 62.9% | viability, T/C [27]: 74.2% | viability, T/C [28]: 43.8% | viability, T/C [29]: 51.2% | viability, T/C [30]: 58.7%

CCNC(=O)CC1N=C(c2ccc(Cl)cc2)c2cc(OC)ccc2-n2c(C)nnc21 (stereo unspecified)
viability, T/C (compound 0.0316 µM): 95.8% [middle of 5 runs] | viability, T/C (compound 0.1 µM): 88.7% [middle of 5 runs] | viability, T/C (compound 0.316 µM): 68.2% [middle of 5 runs] | viability, T/C (compound 1 µM): 70.9% [middle of 5 runs] | viability, T/C (compound 3.16 µM): 71.3% [middle of 5 runs] | IC50 (curve of compound): > 10000 nM and 5560 nM

CC(C)n1nc(-c2ccc3oc(N)nc3c2)c2c(N)ncnc21 + CC1OCC2(CCN(c3cnc(Sc4ccnc(N)c4Cl)c(N)n3)CC2)C1N
IC50 [1]: 67.8 nM | IC50 [2]: > 100 nM | IC50 [3]: 48.9 nM | IC50 [4]: 12.1 nM | IC50 [5]: 7.82 nM | viability, T/C [36]: 87.9% | viability, T/C [37]: 104% | viability, T/C [38]: 71.9% | viability, T/C [31]: 69.7% | viability, T/C [6]: 54.1% | viability, T/C [7]: 47.1% | viability, T/C [39]: 90.9% | viability, T/C [40]: 81.7% | viability, T/C [41]: 67.5% | viability, T/C [32]: 68.9% | viability, T/C [11]: 53.8% | viability, T/C [12]: 57.5% | viability, T/C [42]: 80.9% | viability, T/C [43]: 68.1% | viability, T/C [44]: 77% | viability, T/C [33]: 59.1% | viability, T/C [16]: 52.5% | viability, T/C [17]: 44.7% | viability, T/C [45]: 73.7% | viability, T/C [46]: 74.5% | viability, T/C [47]: 51.6% | viability, T/C [34]: 57.7% | viability, T/C [21]: 40.3% | viability, T/C [22]: 32.5% | viability, T/C [48]: 70.6% | viability, T/C [49]: 66.8% | viability, T/C [50]: 64.4% | viability, T/C [35]: 45.9% | viability, T/C [26]: 43.4% | viability, T/C [27]: 40.1%

CN(C)C/C=C/C(=O)Nc1cc2c(Nc3ccc(F)c(Cl)c3)ncnc2cc1O[C@H]1CCOC1 + CC1OCC2(CCN(c3cnc(Sc4ccnc(N)c4Cl)c(N)n3)CC2)C1N
IC50 [1]: > 100 nM | IC50 [2]: > 100 nM | IC50 [3]: > 100 nM | IC50 [4]: 83.3 nM | IC50 [5]: > 100 nM | viability, T/C [36]: 95.9% | viability, T/C [37]: 96.1% | viability, T/C [38]: 92.4% | viability, T/C [31]: 71.3% | viability, T/C [6]: 80.1% | viability, T/C [7]: 81.6% | viability, T/C [39]: 80.7% | viability, T/C [40]: 76.6% | viability, T/C [41]: 94.3% | viability, T/C [32]: 81.1% | viability, T/C [11]: 75.5% | viability, T/C [12]: 78.1% | viability, T/C [42]: 93.2% | viability, T/C [43]: 95.5% | viability, T/C [44]: 104% | viability, T/C [33]: 97.9% | viability, T/C [16]: 104% | viability, T/C [17]: 79.5% | viability, T/C [45]: 56.4% | viability, T/C [46]: 53% | viability, T/C [47]: 48.7% | viability, T/C [34]: 51.1% | viability, T/C [21]: 54.5% | viability, T/C [22]: 48.8% | outcome [48]: inactive | outcome [49]: inactive | viability, T/C [50]: 52.6% | outcome [35]: inactive | viability, T/C [26]: 50.9% | viability, T/C [27]: 55.4%
